Results on 1 molecule are retold here after US20230219939A1, “N-(1-CYANO-PYRROLIDIN-3-YL)-5-(3-(TRIFLUOROMETHYL)PHENYL)OXAZOLE-2-CARBOXAMIDE DERIVATIVES AND THE CORRESPONDING OXADIAZOLE DERIVATIVES AS USP30 INHIBITORS FOR THE TREATMENT OF MITOCHONDRIAL DYSFUNCTION” (MISSION THERAPEUTICS LIMITED, priority 2020, published 2023).

Data set [1] deals with Cathepsin B (Homo sapiens, UniProt P07858). In words: Cathepsin B IC50. Type of data set: biochemical.
Data set [2] deals with T1, UCHL1 (Homo sapiens, UniProt P09936).
T1 sequence (P09936 1-223): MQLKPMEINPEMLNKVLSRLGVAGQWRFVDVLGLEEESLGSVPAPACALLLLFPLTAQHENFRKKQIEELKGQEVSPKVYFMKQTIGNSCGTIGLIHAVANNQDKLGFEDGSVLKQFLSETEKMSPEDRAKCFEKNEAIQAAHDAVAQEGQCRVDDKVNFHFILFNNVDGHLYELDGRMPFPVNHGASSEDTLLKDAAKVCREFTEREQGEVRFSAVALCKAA
As to the kind of experiment: UCHL1 DUB IC50. Type of data set: biochemical.

The target of data set [3] is Cathepsin L (Homo sapiens, UniProt P07711). In words: Cathepsin L IC50. The note with it: read-out: Cathepsin IC50 (μM) Cathepsin U. The class given is biochemical.
Chain of Cathepsin L (P07711 114-333, species assumed): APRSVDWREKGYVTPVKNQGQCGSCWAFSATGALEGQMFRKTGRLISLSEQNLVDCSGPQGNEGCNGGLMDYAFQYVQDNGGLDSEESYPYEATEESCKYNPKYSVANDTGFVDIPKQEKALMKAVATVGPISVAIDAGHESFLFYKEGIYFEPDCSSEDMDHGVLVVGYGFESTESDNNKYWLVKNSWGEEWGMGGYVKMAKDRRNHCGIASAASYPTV
For data set [4], the target named is Cathepsin V (Homo sapiens, UniProt O60911). As to the kind of experiment: Cathepsin V IC50. The class given is biochemical.
Chain of Cathepsin V (O60911 114-334, species assumed): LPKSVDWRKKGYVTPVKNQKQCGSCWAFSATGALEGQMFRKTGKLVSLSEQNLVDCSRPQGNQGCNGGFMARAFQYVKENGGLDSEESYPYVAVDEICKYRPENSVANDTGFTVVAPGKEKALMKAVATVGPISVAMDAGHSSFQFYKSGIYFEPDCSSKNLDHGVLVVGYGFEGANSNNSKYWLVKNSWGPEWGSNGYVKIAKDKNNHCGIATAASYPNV
Data set [5] has as its system Cathepsins B, K, L, S, V. In words: Cathepsin panel IC50 (summary over B, K, L, S, V). Type of data set: biochemical.
The test system of data set [6] is mouse hepatocytes. In words: Hepatocyte Cl mouse. Type of data set: in vitro ADME. As for the experimental part: Hep Cl mouse: in vitro hepatocyte clearance in mouse cells.
Clu: in vitro clearance. Clu as defined here is the scaled clearance, in turn calculated from the intrinsic clearance. The intrinsic clearance is the predicted clearance due to hepatic metabolic reactions, determined from incubation of a compound in a hepatocyte preparation.

The test system of data set [7] is USP2, USP6, USP10, USP16, USP21, USP22, USP25, USP28. In words: DUB selectivity panel IC50. The class given is biochemical.
The nature of data set [8]: Mouse plasma stability. The class given is in vitro ADME. The note with it: mouse plasma; read-out: Stability Mouse plasma t1/2.
In data set [9] the target is T2, Cathepsin K (Homo sapiens, UniProt P43235).
T2 sequence (P43235 115-329): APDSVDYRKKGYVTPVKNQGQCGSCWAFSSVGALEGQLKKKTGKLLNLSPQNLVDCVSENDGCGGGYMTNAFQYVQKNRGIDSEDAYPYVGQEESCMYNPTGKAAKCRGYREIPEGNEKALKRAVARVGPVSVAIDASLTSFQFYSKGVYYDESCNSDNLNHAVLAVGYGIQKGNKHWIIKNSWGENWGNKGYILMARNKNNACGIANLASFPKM
As to the kind of experiment: Cathepsin K IC50. Type of data set: biochemical.

The target of data set [10] is T3, USP30 (Homo sapiens, UniProt Q70CQ3).
T3 construct: purchased Boston Biochem E582
T3 sequence (Q70CQ3 57-517 limits assumed): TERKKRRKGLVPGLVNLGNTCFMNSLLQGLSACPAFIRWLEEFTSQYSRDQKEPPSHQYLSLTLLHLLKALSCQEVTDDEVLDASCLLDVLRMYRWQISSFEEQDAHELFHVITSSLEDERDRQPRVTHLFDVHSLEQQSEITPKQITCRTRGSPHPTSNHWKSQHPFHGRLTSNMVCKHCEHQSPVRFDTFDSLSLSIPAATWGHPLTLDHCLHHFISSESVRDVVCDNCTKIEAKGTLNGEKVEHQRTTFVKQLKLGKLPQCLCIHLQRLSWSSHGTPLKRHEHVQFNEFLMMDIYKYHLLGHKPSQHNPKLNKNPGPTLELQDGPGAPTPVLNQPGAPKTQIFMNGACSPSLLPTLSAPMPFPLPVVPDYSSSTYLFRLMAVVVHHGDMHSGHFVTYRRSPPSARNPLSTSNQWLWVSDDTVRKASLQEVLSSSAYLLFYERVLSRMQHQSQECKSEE
In words: USP30 biochemical IC50 assay (fluorescence polarisation). The method, then: Dilution plates were prepared at 21 times the final concentration (2100 μM for a final concentration of 100 μM) in 50% DMSO in a 96-well polypropylene V-bottom plate (Greiner #651201). A typical 8-point dilution series would be 100, 30, 10, 3, 1, 0.3, 0.1, 0.03 μM final. Reactions were performed in duplicate in black 384 well plates (small volume, Greiner 784076) in a final reaction volume of 21 μl. Either 1 μl of 50% DMSO or diluted compound was added to the plate. USP30 (Boston Biochem #E582) was diluted in reaction buffer (40 mM Tris, pH 7.5, 0.005% Tween 20, 0.5 mg/ml BSA, 5 mM beta-mercaptoethanol) to achieve a final assay concentration of 4 nM, and 10 μl of diluted USP30 was added to the compound. Enzyme and compound were incubated for 30 min at room temp. Reactions were initiated by the addition of 50 nM of TAMRA labelled peptide linked to ubiquitin via an iso-peptide bond as fluorescence polarisation substrate. Reactions were read immediately after addition of substrate and following a 2-hour incubation at room temperature. Readings were performed on a Pherastar Plus (BMG Labtech). λ Excitation 540 nm; λ Emission 590 nm.
A general note: Polarisation of emitted light reports the rotation of a fluorescent probe.

The target in data set [11] is Cathepsin S (Homo sapiens, UniProt P25774). As to the kind of experiment: Cathepsin S IC50. The class given is biochemical.
Chain of Cathepsin S (P25774 115-331, species assumed): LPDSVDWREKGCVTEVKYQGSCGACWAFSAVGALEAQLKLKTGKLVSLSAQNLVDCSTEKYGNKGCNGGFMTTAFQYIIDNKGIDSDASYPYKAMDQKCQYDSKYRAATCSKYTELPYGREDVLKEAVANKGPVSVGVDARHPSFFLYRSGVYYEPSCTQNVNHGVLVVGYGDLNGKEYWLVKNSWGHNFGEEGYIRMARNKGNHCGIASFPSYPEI

Like-named read-outs stand apart in the source and are kept apart here.

A word on the IC50: it is the point on the concentration scale where inhibition reaches its midpoint.

`N#CN1CC[C@H](C(=O)Nc2cn(-c3cccc(C(F)(F)F)c3)cn2)C1` [Reference Example B, reference compound]: the IC50 in data set [1] is 4.6 µM; in data set [2], 0.15 µM; in data set [3], 1.1 µM; in data set [4], 2.5 µM; in [5] (range over the five cathepsins, read-out: Cathepsin IC50 (μM) B, K, U, S, V), 0.91 to 6.4 µM; in data set [7] (range over the eight DUBs, read-out: DUB IC50 (μM) USP2, USP6, USP10, USP16, USP21, USP22, USP25, USP28) it was 3.8 to 59.7 µM. Moreover, the IC50 in data set [9] was 0.91 µM; in data set [10] (USP30 biochemical IC50 assay, read-out: USP30 IC50), 0.3 µM; in [10] (read-out: DUB IC50 (μM) USP30), 0.3 µM; in [11] it was 6.4 µM. The “DUB selectivity preference for USP30 v UCHL1” value in [2] was found to be 0.5. For the same molecule, in [2], the “fold more potent against USP30 than UCHL1” value is on record as 0.5 fold. Besides, the “Selectivity preference for USP30 v cathepsins” value in data set [5] is 3.0-21. Besides, the “Hepatocyte Cl mouse Scaled Clu” value in data set [6] is listed as over 121 mL/min/kg. Further, in [7] (Ref. Ex. A 7 DUBs (exc. USP6), Ref. Ex. B 8 DUBs), the “DUB selectivity preference for USP30 v 7/8 DUBs” value was 12.7-199. Moreover, the “minimum fold more potent against USP30 than against each of the eight DUBs” value in [7] (USP2, USP6, USP10, USP16, USP21, USP22, USP25, USP28, 'A' not tested against USP6) amounted to 12.7 fold. Also, in data set [8], the half-life was found to be 10.4 min. Further, the “fold more potent against USP30 than against cathepsin K” value in [9] came to 3 fold.
